Structures are written as SMILES. Calls of active or inactive are those of the source. No cut-off for these calls is given here.

Here are results for three compounds from ChEMBL document CHEMBL3875185, “Structure-anticonvulsant activity studies in the group of (E)-N-cinnamoyl aminoalkanols derivatives monosubstituted in phenyl ring with 4-Cl, 4-CH3 or 2-CH3” (Bioorg Med Chem, 2017).

Data set [1] relates to Rattus norvegicus. In words: Neurotoxicity in Sprague-Dawley rat assessed as behavioral change at 30 mg/kg, po measured at […] post dose. The format is toxicity, organism-based. Particulars: in vivo.
The subject of data set [2] is Mus musculus. In words: Anticonvulsant activity in maximal electroshock induced seizure mouse model assessed as suppression in hindlimb tonic extension at 300 mg/kg, ip measured at 0.5 hrs post dose. In kind it is functional, organism-based.
For data set [3], the system named is Mus musculus. Nature of the data set: Anticonvulsant activity in 6-Hz induced seizure mouse model assessed as restoration of normal activity within 10 secs from stimulation at 100 mg/kg, ip at 32 mA measured at 0.5 hrs post dose. In kind it is functional, organism-based.
Data set [4] relates to Rattus norvegicus. In words: Neurotoxicity in Sprague-Dawley rat assessed as behavioral change at 30 mg/kg, po measured at 0.5 hrs post dose. Particulars: in vivo. In kind it is toxicity, organism-based.
Data set [5] has as its system Mus musculus. In words: Anticonvulsant activity in ip dosed 6-Hz induced seizure mouse model assessed as restoration of normal activity within 10 secs from stimulation by measuring time to peak effect at 44 mA. In kind it is functional.
Data set [6] relates to Mus musculus. Nature of the data set: Anticonvulsant activity in ip dosed maximal electroshock induced seizure mouse model assessed as suppression in hindlimb tonic extension. The format is functional. (In general: The maximal electroshock test induces tonic seizures with an electrical stimulus.)
The test system of data set [7] is Rattus norvegicus. In words: Anticonvulsant activity in po dosed maximal electroshock induced seizure Sprague-Dawley rat model assessed as suppression in hindlimb tonic extension. In kind it is functional.
A short description of data set [8]: Neurotoxicity in po dosed Sprague-Dawley rat assessed as behavioral change. The format is toxicity, organism-based. To be noted: in vivo.
Data set [9] is described as follows: Protection index, ratio of TD50 for neurotoxicity in ip dosed Sprague-Dawley rat model to ED50 for ip dosed maximal electroshock induced seizure Sprague-Dawley rat model. In kind it is toxicity, organism-based. Particulars: in vivo, read-out: Ratio TD50/ED50.
In data set [10] the target is Adenosine receptor A2a (Homo sapiens) (UniProt P29274). In words: Displacement of [3H]CGS 21680 from human recombinant adenosine receptor A2A expressed in HEK293 cells at 100 uM measured after 120 mins by scintillation counting method relative to control. In kind it is cell-based. On the technique in general: In a radioligand displacement assay an active substance lowers the binding of a labelled ligand.

In data set [11] the target is Beta-2 adrenergic receptor (Homo sapiens) (UniProt P07550). Nature of the data set: Displacement of [3H]CGP 12177 from human recombinant beta2 adrenergic receptor expressed in CHO cells at 100 uM measured after 120 mins by scintillation counting method relative to control. The format is cell-based.
The target of data set [12] is Translocator protein (Rattus norvegicus) (UniProt P16257). In words: Displacement of [3H]PK 11195 from rat heart peripheral-type benzodiazepine receptor at 100 uM measured after 15 mins by scintillation counting method relative to control.
Data set [13] addresses T1, Cholecystokinin receptor type A (Homo sapiens) (UniProt P32238).
T1 sequence (whole entry): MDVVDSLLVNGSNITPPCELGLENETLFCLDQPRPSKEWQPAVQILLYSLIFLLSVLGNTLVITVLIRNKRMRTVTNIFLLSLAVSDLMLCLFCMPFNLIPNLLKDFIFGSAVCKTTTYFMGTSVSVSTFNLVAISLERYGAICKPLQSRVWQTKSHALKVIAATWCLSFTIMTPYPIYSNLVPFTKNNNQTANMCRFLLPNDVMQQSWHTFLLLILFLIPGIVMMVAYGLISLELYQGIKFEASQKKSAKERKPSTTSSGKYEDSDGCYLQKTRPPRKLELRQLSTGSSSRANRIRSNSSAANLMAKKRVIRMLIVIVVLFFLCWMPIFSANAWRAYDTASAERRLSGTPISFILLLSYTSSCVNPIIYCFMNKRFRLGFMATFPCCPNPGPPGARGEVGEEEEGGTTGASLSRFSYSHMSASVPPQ
In words: Displacement of [125I]CCK-8s from human recombinant CCK1 receptor expressed in CHO cells at 100 uM measured after 60 mins by scintillation counting method relative to control. In kind it is cell-based.

The species entered for data set [14] is Rattus norvegicus. In words: Displacement of [3H]GABA from rat cerebral cortex GABA receptor at 100 uM.
The target in data set [15] is T2, Peroxisome proliferator-activated receptor gamma (Homo sapiens) (UniProt P37231).
T2 sequence (whole entry): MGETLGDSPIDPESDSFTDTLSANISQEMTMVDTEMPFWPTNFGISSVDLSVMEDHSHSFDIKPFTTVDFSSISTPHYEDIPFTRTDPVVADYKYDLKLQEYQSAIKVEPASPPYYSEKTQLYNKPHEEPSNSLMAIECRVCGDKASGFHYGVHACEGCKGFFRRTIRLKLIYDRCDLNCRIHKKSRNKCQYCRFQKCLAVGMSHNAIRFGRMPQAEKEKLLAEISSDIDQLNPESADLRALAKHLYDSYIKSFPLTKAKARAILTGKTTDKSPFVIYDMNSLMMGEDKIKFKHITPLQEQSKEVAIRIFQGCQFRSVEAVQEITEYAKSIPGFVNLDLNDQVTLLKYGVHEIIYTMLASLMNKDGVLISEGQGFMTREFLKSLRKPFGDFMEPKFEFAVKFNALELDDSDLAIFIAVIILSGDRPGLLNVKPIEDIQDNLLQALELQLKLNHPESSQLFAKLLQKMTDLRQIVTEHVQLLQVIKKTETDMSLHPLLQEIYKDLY
Nature of the data set: Displacement of [3H]rosiglitazone from human recombinant PPAR-gamma receptor expressed in Escherichia coli at 100 uM measured after 120 mins by scintillation counting method relative to control.

For data set [16], the species on record is Rattus norvegicus. In words: Displacement of [3H]TCP from rat cerebral cortex phencyclidine receptor at 100 uM measured after 120 mins by scintillation counting method relative to control.
In data set [17] the target is Prostaglandin E2 receptor EP2 subtype (Homo sapiens) (UniProt P43116). In words: Displacement of [3H]PGE2 from human recombinant EP2 receptor expressed in HEK293 cells at 100 uM measured after 120 mins by scintillation counting method relative to control. The format is cell-based.
Data set [18] deals with T3, 5-hydroxytryptamine receptor 1A (Homo sapiens) (UniProt P08908).
T3 sequence (whole entry): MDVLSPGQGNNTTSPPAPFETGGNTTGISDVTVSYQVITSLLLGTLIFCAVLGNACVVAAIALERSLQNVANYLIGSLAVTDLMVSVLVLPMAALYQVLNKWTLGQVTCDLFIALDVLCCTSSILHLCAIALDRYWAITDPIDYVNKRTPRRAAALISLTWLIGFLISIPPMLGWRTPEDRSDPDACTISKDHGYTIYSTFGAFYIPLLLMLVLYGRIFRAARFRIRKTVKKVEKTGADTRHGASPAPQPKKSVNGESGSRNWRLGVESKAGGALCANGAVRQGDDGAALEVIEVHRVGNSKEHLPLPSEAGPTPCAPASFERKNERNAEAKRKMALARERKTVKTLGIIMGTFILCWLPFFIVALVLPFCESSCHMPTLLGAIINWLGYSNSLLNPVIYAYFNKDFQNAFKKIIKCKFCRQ
In words: Displacement of [3H]8-OH-DPAT from human recombinant 5HT1A receptor expressed in HEK293 cells at 100 uM measured after 60 mins by scintillation counting method relative to control. The format is cell-based.

For data set [19], the target named is 5-hydroxytryptamine receptor 5A (Homo sapiens) (UniProt P47898). Nature of the data set: Displacement of [3H]LSD from human recombinant 5HT5A receptor expressed in HEK293 cells at 100 uM measured after 120 mins by scintillation counting method relative to control. The format is cell-based.
The species named for data set [20] is Rattus norvegicus. In words: Displacement of [125I]apamin from rat cerebral cortex SKCa channel at 100 uM measured after 60 mins by scintillation counting method relative to control.
Data set [21] is filed under the species Rattus norvegicus. Nature of the data set: Displacement of [35S]TBPS from rat cerebral cortex GABA-gated chloride channel at 100 uM measured after 60 mins by scintillation counting method relative to control.

Chain of 5-hydroxytryptamine receptor 5A (Homo sapiens) (P47898 whole entry): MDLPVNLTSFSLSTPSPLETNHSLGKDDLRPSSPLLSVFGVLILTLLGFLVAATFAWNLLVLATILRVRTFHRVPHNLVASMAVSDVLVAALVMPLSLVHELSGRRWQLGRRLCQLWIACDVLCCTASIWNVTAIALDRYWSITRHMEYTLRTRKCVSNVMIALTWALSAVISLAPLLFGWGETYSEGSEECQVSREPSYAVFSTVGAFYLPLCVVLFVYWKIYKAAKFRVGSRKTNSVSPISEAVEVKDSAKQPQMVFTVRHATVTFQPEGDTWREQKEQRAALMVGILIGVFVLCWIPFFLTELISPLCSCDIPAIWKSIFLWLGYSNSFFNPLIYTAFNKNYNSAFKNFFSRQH
Chain of Prostaglandin E2 receptor EP2 subtype (Homo sapiens) (P43116 whole entry): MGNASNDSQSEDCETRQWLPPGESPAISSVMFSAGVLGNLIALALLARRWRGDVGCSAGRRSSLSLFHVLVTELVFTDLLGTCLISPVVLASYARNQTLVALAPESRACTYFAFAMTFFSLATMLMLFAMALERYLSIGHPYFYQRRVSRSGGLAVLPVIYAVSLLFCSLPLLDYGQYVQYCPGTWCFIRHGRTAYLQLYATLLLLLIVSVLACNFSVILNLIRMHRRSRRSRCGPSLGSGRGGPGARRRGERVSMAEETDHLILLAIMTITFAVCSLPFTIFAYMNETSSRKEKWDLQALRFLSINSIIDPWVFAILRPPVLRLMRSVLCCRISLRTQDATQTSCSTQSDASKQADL
Chain of Translocator protein (Rattus norvegicus) (P16257 whole entry, looked up): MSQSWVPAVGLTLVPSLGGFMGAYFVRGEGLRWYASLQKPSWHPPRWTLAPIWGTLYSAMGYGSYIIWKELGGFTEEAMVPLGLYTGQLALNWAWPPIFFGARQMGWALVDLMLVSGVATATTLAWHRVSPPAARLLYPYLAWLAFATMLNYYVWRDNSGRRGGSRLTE
Chain of Beta-2 adrenergic receptor (Homo sapiens) (P07550 whole entry, looked up): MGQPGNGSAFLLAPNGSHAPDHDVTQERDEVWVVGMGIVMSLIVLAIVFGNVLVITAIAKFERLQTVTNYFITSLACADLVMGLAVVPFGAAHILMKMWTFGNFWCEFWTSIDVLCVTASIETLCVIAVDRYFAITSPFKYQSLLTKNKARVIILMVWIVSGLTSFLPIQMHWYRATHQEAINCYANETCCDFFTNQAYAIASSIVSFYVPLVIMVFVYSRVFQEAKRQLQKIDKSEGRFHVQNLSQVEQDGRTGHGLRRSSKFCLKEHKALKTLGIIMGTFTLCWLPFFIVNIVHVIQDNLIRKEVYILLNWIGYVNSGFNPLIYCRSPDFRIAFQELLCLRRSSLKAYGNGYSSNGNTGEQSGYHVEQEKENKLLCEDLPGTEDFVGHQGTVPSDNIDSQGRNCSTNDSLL
Chain of Adenosine receptor A2a (Homo sapiens) (P29274 whole entry): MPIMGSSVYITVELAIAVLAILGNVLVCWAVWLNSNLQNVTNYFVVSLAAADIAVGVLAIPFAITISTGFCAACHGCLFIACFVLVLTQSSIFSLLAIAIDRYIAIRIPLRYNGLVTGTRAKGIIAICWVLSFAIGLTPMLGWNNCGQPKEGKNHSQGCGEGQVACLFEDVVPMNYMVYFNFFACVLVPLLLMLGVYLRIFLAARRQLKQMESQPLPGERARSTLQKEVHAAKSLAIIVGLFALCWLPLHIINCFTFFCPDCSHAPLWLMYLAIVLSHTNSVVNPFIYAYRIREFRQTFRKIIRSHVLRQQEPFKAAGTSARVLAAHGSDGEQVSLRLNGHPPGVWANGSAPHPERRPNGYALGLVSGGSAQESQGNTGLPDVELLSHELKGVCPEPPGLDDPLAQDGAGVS

One may read the ED50 as the dose that gives a 50% effect, or the effect in half of the subjects. As usually defined, the TD50 is the 50% point of the dose-response relation for the toxic effect studied. In general, inhibition refers to the change of the read-out against control, counted positive when it falls. With `Cc1ccccc1/C=C/C(=O)N[C@@H](C)CO`, the Activity result in the data set with Rattus norvegicus [1] and in the data set on Rattus norvegicus [4] was “Non-Toxic” in each case. Further, the result with Mus musculus [2] and in the data set with Mus musculus [3] was Active. Moreover, the Time in the data set on Mus musculus [5] amounted to 0.5 h. Besides, the ED50 came out at 42.6 mg/kg in the data set with Mus musculus [6] and 25.8 mg/kg in the data set with Rattus norvegicus [7]. Also, the TD50 in data set [8] was more than 500 mg/kg. Further, in data set [9], the selectivity ratio amounted to 6.3. Moreover, the inhibition in data set [10] was 3.8%; in data set [11] it was -8%; in [12] it was 75.8%; in [13], -5.8%; in the data set filed under Rattus norvegicus [14], 13.2%; in data set [15] it was 3%. In addition, the inhibition in the data set listed under Rattus norvegicus [16] is 7.8%; in data set [17], 37.8%; in [18] it was 51.2%; in data set [19], 17.4%; in the data set filed under Rattus norvegicus [20], -5.8%; in the data set filed under Rattus norvegicus [21], 17.7%.
For the compound `CCC(CO)NC(=O)/C=C/c1ccc(Cl)cc1` (stereo not drawn), the Activity result in the data set with Rattus norvegicus [1] and in the data set with Rattus norvegicus [4] was “Non-Toxic” in each case. The result with Mus musculus [2] and in the data set with Mus musculus [3] was Active. Further, the Time in the data set on Mus musculus [5] worked out at 0.5 h. The median effective dose (ED50) with Mus musculus [6] is 53.8 mg/kg; with Rattus norvegicus [7] it was 46.8 mg/kg. For the same compound, the TD50 in data set [8] stood at 277 mg/kg. The selectivity ratio in data set [9] is 3.74. Moreover, the inhibition in data set [10] was found to be 27.3%; in data set [11] it was 2.1%; in data set [12], 53%; in data set [13], 11%; in the data set filed under Rattus norvegicus [14] it was 8.7%; in [15] it was 26.7%. The inhibition in the data set listed under Rattus norvegicus [16] was -2.2%; in data set [17], 57.6%; in data set [18], 28.2%; in [19], 18.7%; in the data set filed under Rattus norvegicus [20], 2.3%; in the data set listed under Rattus norvegicus [21], 37.2%.
Turning to `CC(O)CNC(=O)/C=C/c1ccc(Cl)cc1` (stereo not drawn), the Activity result in the data set on Rattus norvegicus [1] and in the data set on Rattus norvegicus [4] was “Non-Toxic” throughout. In addition, the result in the data set with Mus musculus [2] and in the data set with Mus musculus [3] was Active. Besides, in the data set with Mus musculus [5], the Time was determined as 0.25 h. The 50% effective dose (ED50) in the data set with Mus musculus [6] was 55.6 mg/kg; in the data set on Rattus norvegicus [7] it was 77.3 mg/kg. For the same compound, the TD50 in data set [8] is more than 500 mg/kg. The selectivity ratio in data set [9] amounted to 1.66. In addition, the inhibition was 25.2% in data set [10]; -9% in data set [11]; 8.1% in data set [12]; 26% in data set [13]; -1.3% in the data set listed under Rattus norvegicus [14]; 2.3% in data set [15]. Besides, the inhibition in the data set filed under Rattus norvegicus [16] is -5.5%; in data set [17], 29.7%; in data set [18], 76.6%; in [19], 19%; in the data set listed under Rattus norvegicus [20] it was -2.5%; in the data set filed under Rattus norvegicus [21], 22.6%.
